# Data from patent US20210060165A1, “Light-Controlled Antibacterial Agent Composed of Linear Cationic Oligopeptide and Multi-arm B-Cyclodextrin” (JILIN UNIVERSITY, priority 2019, published 2021).
# Legend:
# Assay in all cases: growth curve (OD600) in LB liquid culture medium
# Type in all cases: cell-based
# Settings in all cases: separate or as aggregates
# [1] = system: Escherichia coli (BL21-gold (DE3))
# Protocol: (§1) Preparation of LB liquid culture medium: dissolving 1-10 g of peptone, 0.5-5 g of yeast extract and 1-10 g of sodium chloride in 100-980 mL of redistilled water, and performing high temperature sterilization on same at 121° C. for 20 min to obtain a fresh LB liquid culture medium.
# (§2) Picking bacterial strains (gram-negative bacteria such as Escherichia coli, […], Pseudomonas aeruginosa, and gram-positive bacteria such as Staphylococcus aureus) into 20-30 mL of (containing 20-25 μL of ampicillin) the above fresh LB liquid culture medium, placing in a constant temperature shaker with a revolution of 180 rpm and a temperature of 37° C. for culture for 11-15 h, thus obtaining the LB culture solution containing bacterial strains; then diluting the above LB culture solution containing bacteria strains with a blank LB liquid culture medium to an OD600 (OD600 refers to the light absorption value of the bacteria strain culture solution at 600 nm) about 0.035.
# (§3) Antibacterial property of cross-linked aggregates in LB liquid culture medium: adding the diluted LB culture solution (the LB culture solution contains bacteria and ampicillin) containing bacterial strains into a clean test tube, adding the aqueous solution of the light-controlled antibacterial agent composed of the linear cationic oligopeptide and multi-arm β-cyclodextrin into the test tube, and controlling the concentration of the final linear cationic oligopeptide to 15-60 μM. Placing the prepared sample in the constant temperature shaker at 37° C. for culture, and controlling the revolution of the shaker to be 180 rpm. Determining the corresponding optical density (OD600) of the culture solution at different times (0-540 min) with a nucleic acid protein analyzer to evaluate the antibacterial activity of the cross-linked aggregates.
# (§4) Preparation of LB liquid culture medium: dissolving 10 g of peptone, 5 g of yeast extract and 10 g of sodium chloride in 980 mL of redistilled water, and performing high temperature sterilization on same at 121° C. for 20 min to obtain a fresh LB liquid culture medium. Picking Escherichia coli (BL21-gold (DE3),) into 25 mL (containing 25 μL of ampicillin) of the above fresh LB liquid culture medium, placing in a constant temperature shaker with a revolution of 180 rpm and a temperature of 37° C. for culture for 12 h. Then diluting the obtained Escherichia coli culture solution with the fresh LB liquid culture medium to an OD600 of 0.035.
# (§5) respectively taking 4 parts of the sterilized Escherichia coli culture solution (2.0 mL each) into 4 sterile test tubes, numbered as 1, 2, 3, and 4. […]
# [2] = system: Pseudomonas aeruginosa
# Protocol: as §1, §2, §3, §4, §5
# [3] = system: Bacillus subtilis
# Protocol: as §1, §2, §3, §4, §5
# [4] = system: Staphylococcus aureus
# Protocol: as §1, §2, §3, §4, §5
# [5] = Embodiment 5, 37° C., azoRIRIRARazo-NH2 20 μM, two-arm β-cyclodextrin 20 μM
# [6] = Embodiment 4, 37° C., azoRARARVRazo-NH2 30 μM, three-arm β-cyclodextrin 20 μM
# [7] = Embodiment 6, 37° C., azoKAKAKazo-NH2 60 μM, three-arm β-cyclodextrin 40 μM
# [8] = Embodiment 2, 37° C., peptide 30 μM, cyclodextrin 30 μM
# [9] = Embodiment 9, 37° C., azoKVKVKVKazo-NH2 30 μM, three-arm β-cyclodextrin 10 μM, two-arm β-cyclodextrin 15 μM
# [10] = Embodiment 3, 37° C., azoKLKLKLKazo-NH2 30 μM, three-arm β-cyclodextrin 20 μM
# [11] = Embodiment 7, 37° C., azoRARVRazo-NH2 50 μM, three-arm β-cyclodextrin 33.33 μM
smiles,measurement,setting,value
OCC1OC2OC3C(CO)OC(OC4C(CO)OC(OC5C(Cn6cc(COc7ccc(OCc8cn(CC9OC%10OC%11C(CO)OC(OC%12C(CO)OC(OC%13C(CO)OC(OC%14C(CO)OC(OC%15C(CO)OC(OC%16C(CO)OC(OC9C(O)C%10O)C(O)C%16O)C(O)C%15O)C(O)C%14O)C(O)C%13O)C(O)C%12O)C(O)C%11O)nn8)cc7)nn6)OC(OC6C(CO)OC(OC7C(CO)OC(OC8C(CO)OC(OC1C(O)C2O)C(O)C8O)C(O)C7O)C(O)C6O)C(O)C5O)C(O)C4O)C(O)C3O (stereo not drawn) [two-arm β-cyclodextrin],optical density (OD600) at end of culture,[1]; [5],1.21
same,optical density (OD600) at start of culture,[1]; [5],0.034
OCC1OC2OC3C(CO)OC(OC4C(CO)OC(OC5C(Cn6cc(-c7cc(-c8cn(CC9OC%10OC%11C(CO)OC(OC%12C(CO)OC(OC%13C(CO)OC(OC%14C(CO)OC(OC%15C(CO)OC(OC%16C(CO)OC(OC9C(O)C%10O)C(O)C%16O)C(O)C%15O)C(O)C%14O)C(O)C%13O)C(O)C%12O)C(O)C%11O)nn8)cc(-c8cn(CC9OC%10OC%11C(CO)OC(OC%12C(CO)OC(OC%13C(CO)OC(OC%14C(CO)OC(OC%15C(CO)OC(OC%16C(CO)OC(OC9C(O)C%10O)C(O)C%16O)C(O)C%15O)C(O)C%14O)C(O)C%13O)C(O)C%12O)C(O)C%11O)nn8)c7)nn6)OC(OC6C(CO)OC(OC7C(CO)OC(OC8C(CO)OC(OC1C(O)C2O)C(O)C8O)C(O)C7O)C(O)C6O)C(O)C5O)C(O)C4O)C(O)C3O (stereo not drawn) [three-arm β-cyclodextrin],optical density (OD600) at end of culture,[2]; [6],1.15
same,optical density (OD600) at start of culture,[2]; [6],0.039
same,optical density (OD600) at end of culture,[2]; [7],1.25
same,optical density (OD600) at start of culture,[2]; [7],0.035
same,optical density (OD600) at end of culture,[3]; [8],1.15
same,optical density (OD600) at start of culture,[3]; [8],0.036
same,optical density (OD600) at end of culture,[3]; [9],1.23
same,optical density (OD600) at start of culture,[3]; [9],0.039
same,optical density (OD600) at end of culture,[4]; [10],1.25
same,optical density (OD600) at start of culture,[4]; [10],0.043
same,optical density (OD600) at end of culture,[4]; [11],1.22
same,optical density (OD600) at start of culture,[4]; [11],0.041
same,optical density (OD600) at start of incubation,"[1]; Embodiment 1, 37° C., 0 min, azoKVKVKVKazo-NH2 30 μM, three-arm β-cyclodextrin 20 μM",0.043
same,optical density (OD600) at end of incubation,"[1]; Embodiment 1, 37° C., 9 h (540 min), azoKVKVKVKazo-NH2 30 μM, three-arm β-cyclodextrin 20 μM",1.61
